Reference: PubChem BioAssay (NCI)
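Assay format: 96-well plates, 48-hour exposure. GI50 is the concentration that inhibits growth by half. TGI is the concentration that stops growth completely.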

Columns and labels:
Test in all cases: NCI tumour cell line growth inhibition, 48 h
HCT-15 colon = test system: HCT-15 colon
HL-60(TB) leukemia = test system: HL-60(TB) leukemia
HOP-62 NSCLC = test system: HOP-62 NSCLC
MOLT-4 leukemia = test system: MOLT-4 leukemia
NCI-H23 lung = test system: NCI-H23 lung
NCI-H460 lung = test system: NCI-H460 lung
NCI/ADR-RES ovarian = test system: NCI/ADR-RES ovarian
SK-MEL-28 melanoma = test system: SK-MEL-28 melanoma
TK-10 renal = test system: TK-10 renal
U251 CNS = test system: U251 CNS

| SMILES | TGI (HCT-15 colon) [µM] | TGI (HL-60(TB) leukemia) [µM] | TGI (HOP-62 NSCLC) [µM] | TGI (MOLT-4 leukemia) [µM] | TGI (NCI-H23 lung) [µM] | TGI (NCI-H460 lung) [µM] | TGI (NCI/ADR-RES ovarian) [µM] | TGI (SK-MEL-28 melanoma) [µM] | TGI (TK-10 renal) [µM] | TGI (U251 CNS) [µM] | GI50 (HCT-15 colon) [µM] | GI50 (HL-60(TB) leukemia) [µM] | GI50 (MOLT-4 leukemia) [µM] | GI50 (NCI-H23 lung) [µM] | GI50 (NCI-H460 lung) [µM] | GI50 (NCI/ADR-RES ovarian) [µM] | GI50 (SK-MEL-28 melanoma) [µM] | GI50 (TK-10 renal) [µM] | GI50 (U251 CNS) [µM] |
| --- | --- | --- | --- | --- | --- | --- | --- | --- | --- | --- | --- | --- | --- | --- | --- | --- | --- | --- | --- |
| O=C(CNc1ccccn1)Nn1cnc2ccc(S(=O)(=O)Nc3ccccn3)cc2c1=O | > 100 | > 100 | > 100 | > 100 | > 100 | > 100 | > 100 | > 100 | > 100 | > 100 | – | – | – | – | – | – | – | – | – |
| CC(C)/C=C1\CCC(CN(C)C)C1=O (stereo not given) | 4.68 | 4.55 | 46.3 | 3.48 | 25.4 | 40.1 | 10.6 | 5.07 | 5.96 | 32.7 | – | – | – | – | – | – | – | – | – |
| FC(F)(F)c1ccc(C2ON=C(c3ccccc3)N2C23CC4CC(CC(C4)C2)C3)cc1 (stereo not given) | > 10 | > 10 | > 10 | > 10 | > 10 | > 10 | > 10 | > 10 | > 10 | > 10 | – | – | – | – | – | – | – | – | – |
| CC1=NN(c2nc(N)nc(NS(=O)(=O)c3cc(C)c(Cl)cc3S)n2)C(C)(C)C1 | > 10 | > 10 | > 10 | > 10 | > 10 | > 10 | > 10 | > 10 | > 10 | > 10 | – | – | – | – | – | – | – | – | – |
| CC(=O)OI1NC(=O)c2ccccc21 | > 100 | > 100 | > 100 | > 100 | > 100 | – | > 100 | > 100 | > 100 | > 100 | – | – | – | – | – | – | – | – | – |
| CC(C)C1CNC(=O)C2(C=NC(C(C)C)CNC(=O)C3(C=N1)CCCO3)CCCO2 (stereo not given) | > 10 | > 10 | > 10 | > 10 | > 10 | – | > 10 | > 10 | > 10 | > 10 | – | – | – | – | – | – | – | – | – |
| CCC(NC(C)c1ccccc1)C(=O)c1ccc(OCc2ccccc2)c(OCc2ccccc2)c1 (stereo not given) | > 100 | > 100 | > 100 | – | > 100 | > 100 | > 100 | > 100 | > 100 | > 100 | – | – | – | – | – | – | – | – | – |
| CCOC(=O)N/N=C(/N)c1cccc(Br)c1 | > 100 | > 100 | > 100 | > 100 | > 100 | > 100 | > 100 | – | > 100 | – | – | – | – | – | – | – | – | – | – |
| CC1(C)OP(=O)(c2ccccc2)C=C1Sc1ccc([N+](=O)[O-])cc1[N+](=O)[O-] (stereo not given) | > 100 | 37.4 | > 100 | – | > 100 | > 100 | > 100 | > 100 | > 100 | > 100 | – | – | – | – | – | – | – | – | – |
| Cc1cccc(C2ON=C(c3ccccc3)N2C23CC4CC(CC(C4)C2)C3)c1 (stereo not given) | > 10 | > 10 | > 10 | > 10 | > 10 | > 10 | > 10 | > 10 | > 10 | > 10 | – | – | – | – | – | – | – | – | – |
| O[C@]12C=C(c3nccc4c3[nH]c3ccccc34)[C@@H]3CCN(CCCC/C=C\CC1)C[C@@]31CC3/C=C\CCCCN3[C@H]12 (stereo not given in full) | 1.02 | 1.08 | 0.525 | – | 2.53 | 2.02 | 4.16 | 2.76 | 1.95 | 1.79 | – | – | – | – | – | – | – | – | – |
| O=C1N=C2SC=C(NC(=S)Nc3ccccc3)N2NC12c1ccccc1-c1ccccc12 | > 10 | > 10 | > 10 | > 10 | > 10 | > 10 | > 10 | > 10 | > 10 | – | – | – | – | – | – | – | – | – | – |
| CC(C)[C@@H]1CC[C@@H](C)C[C@H]1OC(=O)c1c2n(c3ccccc13)C[C@H]1OC(C)(C)O[C@@H]21 | > 100 | > 100 | > 100 | > 100 | 48.9 | – | > 100 | > 100 | 60.7 | 32.5 | – | – | – | – | – | – | – | – | – |
| CCOC(=O)C(NC(=O)OCc1ccccc1)C(=O)O (stereo not given) | > 100 | > 100 | > 100 | > 100 | > 100 | > 100 | > 100 | > 100 | > 100 | > 100 | – | – | – | – | – | – | – | – | – |
| Clc1ccc(Cl)c(N=Nc2cc3c4c(c2)CCN4CCC3)c1 | > 10 | > 10 | > 10 | > 10 | > 10 | > 10 | > 10 | > 10 | > 10 | > 10 | – | – | – | – | – | – | – | – | – |
| CCN(CC)CCCNc1c2c(Cl)cc(Cl)cc2nc2nc(=O)[nH]c(C)c12 | > 100 | > 100 | 64.7 | 54.3 | > 100 | 37.1 | > 100 | 95.2 | > 100 | 33.9 | – | – | – | – | – | – | – | – | – |
| C=CCCC1(O)C(O)C(CO)O[C@H](O[C@@]2(CO)OC(CO)C(O)C2O)C1O (stereo not given in full) | > 100 | > 100 | > 100 | > 100 | > 100 | > 100 | > 100 | > 100 | > 100 | > 100 | – | – | – | – | – | – | – | – | – |
| CC(=O)CCCCn1c(=O)c2c(nc(Br)n2C)n(C)c1=O | > 100 | > 100 | > 100 | > 100 | > 100 | > 100 | > 100 | > 100 | > 100 | > 100 | – | – | – | – | – | – | – | – | – |
| COC1(CC[C@@H](C)COC2OC(CO)C(O)C(O)C2O)O[C@H]2C[C@H]3[C@@H]4CC=C5C[C@@H](OC6OC(CO)C(OC7OC(C)C(O)C(O)C7O)C(O)C6OC6OC(C)C(O)C(O)C6O)CC[C@]5(C)[C@H]4CC[C@]3(C)[C@H]2[C@@H]1C (stereo not given in full) | 3.66 | 13.4 | 4.04 | > 26.1 | 9.14 | 5.43 | 6.19 | 5.53 | 23.1 | 4.31 | 1.72 | 3.47 | 5.36 | 2.95 | 1.62 | 2.59 | 2.26 | 8.04 | 1.61 |
| O=C1N/C(=N\N=C\c2ccccc2)C(c2ccccc2)O1 (stereo not given) | > 100 | > 100 | > 100 | > 100 | > 100 | > 100 | > 100 | > 100 | > 100 | > 100 | – | – | – | – | – | – | – | – | – |
| C=C1CC(C)(COc2ccc3c(C)c(Cl)c(=O)oc3c2)OC1=O (stereo not given) | 5.86 | 1.21 | 34.5 | 3.24 | 4.2 | 21.2 | 14.2 | 7.59 | 3.06 | 21 | – | – | – | – | – | – | – | – | – |
